Columns and labels:
[1] = system: erythrocyte membrane ghosts; experiment: Relative membrane retention in erythrocyte membrane ghosts (iodination study); type: binding; conditions: 24 hours, 37° C., PBS+EDTA+5% BSA
Procedure: Relative membrane retention was determined using erythrocyte membrane ghosts prepared by NH4 Cl lysis (Slezak and Horan, Blood, supra). Ghosts were labeled at 4×10^8 /ml with 10 μM compounds for 5 minutes at room temperature, using previously described procedures. However, post-labeling washes were carried out using PBS containing 1 mM EDTA and 5% BSA. After the final wash, ghosts were resuspended at 4×10^8 /ml in PBS+EDTA+5% BSA and incubated for 24 hours at 37° C. At 24 hours, duplicate 50 μl aliquots were withdrawn from a) the well mixed suspension of ghosts (for determination of total compound present), and b) the supernatant remaining after ghosts were pelleted for 15 minutes at 12,500×g (for determination of unbound compound present). Aliquots were extracted by admixture with 200 μl of 100% ethanol and fluorescence intensity of each extract measured using the Fluoroskan II fluorescence microplate reader. Percent compound retained was calculated as
total compound--unbound compound×100/total compound

[2] = system: cells (red cell membranes); experiment: Number of molecules of compound incorporated per cell; type: cell-based; conditions: 10 μM compounds
Procedure: Number of molecules of compound incorporated per cell was determined for cells labeled with 10 μM compounds. An aliquot of 10^6 cells (10 ul) was withdrawn from the washed cells after final resuspension and counting, compounds were extracted from the cell membrane by admixture with 250 μl of 100% ethanol, and the fluorescence intensity of 200 μl of the extract was measured using a Fluoroskan II fluorescence microplate reader and filter combination. Concentration of compound in each extract was determined from a calibration curve of known compound concentrations made up in 100% ethanol and measured on the Fluoroskan II. Number of molecules of compound per cell was then calculated from the known extract concentration, total volume of extract, and known number of cells extracted. Calculated values were (4.0±0.4)×10^6 for compound T (1.3±0.2)×10^6 for compound AA and (2.5±0.7)×10^6 for compound AB.

membrane ghosts = experiment: Membrane binding stability (MBS) assay in membrane ghosts with 5% albumin; conditions: 24 hours, Table III
Text: Determination of Membrane Binding Stability
For example, very stable binding to membranes might be required for applications such as delivery of therapeutic radionuclides to tumor sites, as loss of compound could lead to the radionuclide producing its toxic effect at non-tumor sites. On the other hand, more rapid loss of compound from biomembranes may be desirable for application involving controlled delivery rates of therapeutic agents. Accordingly, there is described hereinbelow an assay for determining MBS under conditions approximating those found in vivo.
In carrying out this assay, approximately physiological concentrations of serum albumin (5%) are used. […] To better approximate the effects of large fluid volumes to which labelled cells are exposed in vivo, the assay for MBS is carried out by suspending a decreasing number of labeled membrane ghosts in a fixed volume of albumin-containing saline. At 24 hours, the total amount of label present is determined by sampling the well mixed suspension; subsequently, the membrane ghosts are pelleted by centrifugation and the amount of label released into the supernatant is determined and expressed as a percent of total label. Percent retention is plotted against number of ghosts per ml. of suspension, and MBS is determined as the area under the curve between 5×10^7 ghosts/ml. and 4×10^8 ghosts/ml.

cells (red cells) = conditions: 20 uM
[3] = system: rabbit hind limb (femoral arterial bed), substance P receptors; experiment: Vascular response in rabbit blood perfused hind limb preparation; type: in vivo; conditions: for ED50: calculated by logistic function, three rabbits; for Effect of antagonist [D-Pro^2,D-Trp^7.9]-substance P on the response: during infusion of antagonist; for Dose at which maximum fall in pressure is achieved / Threshold (minimum) dose required to produce a fall in perfusion pressure / Hind-limb perfusion pressure response: local injection; for Hind-limb perfusion pressure response: no antagonist
Text: The in vivo receptor pharmacology of the compound produced in Example 3d., above, was studied in a rabbit blood perfused hind limb preparation similar to that described by U. Forstermann et al., J. Pharmacol. Exp. Ther., 234: 1055-61 (1987). Blood from a pentobarbital anesthetized, artificially ventilated rabbit was withdrawn from a cannulated carotid artery, passed within medical grade silastic tubing through a constant speed roller pump, and directed to a cannulated femoral artery. Distal perfusion pressure in the femoral arterial bed was measured (in mm Hg) by means of a micropressure transducer (Millar) passed down the perfusion tubing so as to lie just beyond the tip of the femoral catheter. Initially, pump speed was adjusted so that distal perfusion pressure approximated systemic mean arterial blood pressure after which blood flow was kept constant for the remainder of each experiment. Changes in resistance then varied directly as distal perfusion pressure in a manner similar to that described by Ohm's law, such that:
Vascular Resistance=Perfusion Pressure Blood Flow
Thus, by maintaining blood flow constant for the duration of each experiment, changes in distal perfusion pressure directly reflected vascular resistance such that a decrease in pressure signifies vasodilation and an increase in pressure signifies vasoconstriction. Direct injection into the perfusion circuit could thus be used to assess the vascular biology and pharmacology of substances believed to exert actions on in vivo vascular smooth muscle tone.

rabbit red blood cells [4] = conditions: native Substance P; cited from earlier work
rabbit red blood cells [5] = experiment: In vivo stability of conjugate on red blood cells
Procedure: To study the in vivo characteristics of red blood cells labeled with the conjugate of Example 3d., above, 0.5 ml of fresh anticoagulated blood from each of 2 rabbits was labeled with the conjugate (final concentration, 10 μM) and injected back in the same rabbit from which the blood was taken. After the conjugate labeling but prior to injection, an aliquot of labeled cells was examined by flow cytometry to insure adequate labeling. Following in vivo administration of the labeled cells, blood samples were removed at 30 minutes, and then 1, 2, 3, 4, and 7 days and examined by flow cytometry for fluorescent cells.

rabbit red blood cells [6] = experiment: Binding of conjugate to washed rabbit red blood cells, flow cytometry; type: cell-based; conditions: ex vivo, 100 uM
Procedure: The conjugate of Example 3d. […] The fluorescent moiety of the conjugate allows its ready detection on RBCs by flow cytometry. When conjugate labeled rabbit RBCs are injected in the rabbit hind-limb, a reduction in perfusion pressure occurs, the magnitude of which is related to the number of injected cells.

human RBCs = experiment: Flow cytometry of conjugate-labeled human RBCs with anti-substance P antibody; type: cell-based
Procedure: Specifically, untreated RBCs and conjugate-labeled RBCs were analyzed to determine if:
1. The conjugate was incorporated on the surface of cells (FIG. 3A comparison).
2. Fluorescein isothiocyanate (FITC) conjugated goat anti-rabbit antibodies nonspecifically bound to the conjugate-labeled or non-labeled cells (FIG. 3B comparison), or
3. rabbit anti-substance P antibodies+FITC anti-rabbit antibodies specifically bound to the conjugate-labeled RBCs (FIG. 3C comparison).

MBS (membrane ghosts)	SMILES	Percent compound retained [1]	Number of molecules of compound incorporated per cell [2]	Viability and recovery (cells (red cells))	ED50 [3]	Effect of antagonist [D-Pro^2,D-Trp^7.9]-substance P on the response [3]	Dose at which maximum fall in pressure is achieved [3]	Threshold (minimum) dose required to produce a fall in perfusion pressure [3]	Hind-limb perfusion pressure response [3]	Relative potency of substance P vs conjugate ([3]; ratio of ED50)	Lifetime in circulation (rabbit red blood cells [4])	In vivo dissociation from labeled cells (rabbit red blood cells [5]; up to 7 days)	Binding to red cells and effect in circulation (rabbit red blood cells [5]; vs free peptide)	Perfusion pressure response to conjugate labeled RBCs ([3]; 10^6 -10^9 labeled RBCs injected)	Hind-limb perfusion pressure response ([3]; listed as Substance P-lipophilic cyanine conjugate of Example 3.d.)	Vasodilator activity of supernatant fraction of labeled RBCs ([3]; supernatant fractions of labeled RBCs)	Binding to red blood cells (rabbit red blood cells [6])	Red fluorescent signal of labeled cells (human RBCs; 10 μM, FIG. 3A)	Recognition of cell-bound Substance P by anti-substance P antibody (human RBCs; FIG. 3C)
91 ± 0.5%	CCCCCCCCCCCCCCCCCCCCCC[N+]1=C(C=CC=C2N(CCCCCCCCCCCCCC)c3ccc(CNC=O)cc3C2(C)C)C(C)(C)c2ccccc21 [AB]	96.8±1.3%	(2.5±0.7)×10^6 molecules of compound per cell	70-80%															
	CSCC[C@H](NC(=O)[C@H](CC(C)C)NC(=O)CNC(=O)[C@H](Cc1ccccc1)NC(=O)[C@H](Cc1ccccc1)NC(=O)[C@H](CCC(N)=O)NC(=O)[C@H](CCC(N)=O)NC(=O)[C@@H]1CCCN1C(=O)[C@H](CCCCN)NC(=O)[C@@H]1CCCN1C(=O)[C@@H](N)CCCNC(=N)N)C(N)=O [Substance P, reference compound]				0.13 pmol	inhibited by [D-Pro^2,D-Trp^7.9 ]-substance P	3 to 10 pmol	approximately 0.003 pmoles	brief, dose-related decreases in hind-limb perfusion pressure	250 fold	minutes								
	CCCCCCCCCCCCCCCCCCCCCC[N+]1=C(C=CC=C2N(CCCCCCCCCCCCCC)c3ccc(CNC(=O)c4ccc(C(=O)NCCCC[C@H](NC(=O)[C@@H]5CCCN5C(=O)[C@@H](N)CCCNC(=N)N)C(=O)N5CCC[C@H]5C(=O)N[C@@H](CCC(N)=O)C(=O)N[C@@H](CCC(N)=O)C(=O)N[C@@H](Cc5ccccc5)C(=O)N[C@@H](Cc5ccccc5)C(=O)NCC(=O)N[C@@H](CC(C)C)C(=O)N[C@@H](CCSC)C(N)=O)cc4)cc3C2(C)C)C(C)(C)c2ccccc21 [conjugate of Example 3d]				34 pmol	inhibited by [D-Pro^2,D-Trp^7.9 ]-substance P	1000 pmol	1 to 10 pmol	brief, dose-related decreases in hind-limb perfusion pressure			relatively slowly	bind stably to red cells and to provide a protracted therapeutic effect in circulation	graded decreases in perfusion pressure in the rabbit hind limb preparation	capable of vasodilative activity which is qualitatively similar to that of native Substance P	contained a significant portion of the biological activity of the original cell suspension	readily binds to washed rabbit red blood cells	increased red fluorescent signal when compared with the unlabeled cells	significant amount of both green and red fluorescence detectable on the cells

Reference: patent publication US5667764A, “Compounds, compositions and methods for binding bio-affecting substances to surface membranes of bio-particles” (Zynaxis, Inc., priority 1992, dated 1997)
